In patent publication US20050245540A1, “New methods” (FUJISAWA PHARMACEUTICAL CO., LTD., priority 2003, published 2005):
Where a name gives a salt, the structure may show the parent alone.

System: not given
Assay: not given
Conditions: not given

melting point [°C] | Compound
159 to 160 | CC(C)(C)OC(=O)N1CCC(c2c[nH]c3ccccc23)CC1 [Example 1, tert-butyl 4-(1H-indol-3-yl)-1-piperidinecarboxylate]
136 to 137 | CC(C)(C)OC(=O)N1CCC(c2cn(S(C)(=O)=O)c3ccccc23)CC1 [Example 4, tert-butyl 4-[1-(methylsulfonyl)-1H-indol-3-yl]-1-piperidinecarboxylate]

System: calvaria from 5-day-old ICR mice
Assay: Assay using mouse calvarial organ culture (calvaria bone formation assay)
Assay type: cell-based
Conditions: test compound 1.0 × 10^−5 M added in combination with TGF-beta1; new bone area by histomorphometry after 1 week culture
Protocol: Assay using Mouse Calvarial Organ Culture
Calvaria bone formation assay was essentially performed as described by Bonewald et al. (Endocrinology 139:3178, 1998). The calvaria from 5-day-old ICR mice were excised and cut in half along the sagittal suture. Each half of the calvaria was placed on a stainless steel grid in a 12-well tissue culture dish. Each well contained BGJ media (Sigma) supplemented with 0.1% bovine serum albumine, to which the test compound was added in combination with TGF-beta1. The media was changed 24 and 96 hrs. Calvaria were maintained in humidified air (5% CO2) at 37° C. for 1 week. The calvaria were then fixed overnight in formalin, decalcified in EDTA, and were then embedded in paraffin wax. Calvaria sections were stained with hematoxylin and eosin. Histomorphometric analysis was performed using the Image-pro Plus (Trade mark, Media Cybernetics). The sum of the new bone area was determined. Rate of increase was calculated in the following; [formula] • Calvaria area is calculated using Histomorphometric analysis. • Ats: Score of area in case of addition of test compound and TGF beta1 • Atg: Score of area in case of addition of TGF beta1 • Ac: Score of area in case of no addition (Control)

Compound | Rate of increase [%]
COc1ccc(Cn2cc(C3CCNCC3)c3ccc(C#N)cc32)cc1Cl.Cl [49-(6), 1-(3-Chloro-4-methoxybenzyl)-6-cyano-3-(4-piperidinyl)-1H-indole hydrochloride] | 112
CS(=O)(=O)c1ccc(Cn2cc(C3CCNCC3)c3ccccc32)cc1 [Example 7, 1-[4-(methylsulfonyl)benzyl]-3-(4-piperidinyl)-1H-indole hydrochloride] | 206
CC(C)(C)OC(=O)NCCCCCCCN1CCC(c2c[nH]c3ccc(O)cc23)CC1 [40-(3), 3-[1-(7-tert-butoxycarbonylaminoheptyl)-4-piperidinyl]-5-hydroxy-1H-indole] | 140
Cc1ccc(Cn2cc(C3CCNCC3)c3ccccc32)cc1C [9-(5)] | 180
COC(=O)c1cccc(Cn2cc(C3CCNCC3)c3ccccc32)c1 [9-(18)] | 158
COc1ccc(Cn2cc(C3CCN(C(=O)OC(C)(C)C)CC3)c3ccc(C#N)cc32)cc1Cl [46-(4)] | 203
